Results taken from patent US10934303B2, “Aryl ethene derivative and pharmaceutical composition containing same as active ingredient” (priority 2016, dated 2021).
Read-outs that look alike come from different tables or passages of the source.

Key:
[1] = tested on: CAL-62 anaplastic thyroid cancer cell line; type: cell-based
pERK1/2 = assay: Western blot, phosphorylated ERK1/2 in CAL62 cells; type: cell-based; conditions: MEK inhibitor
[2] = target: GST-bound ERR gamma ligand-binding domain (LBD) (Homo sapiens (Human), UniProt P62508); assay: ERRγ binding assay (inverse agonist assay), TR-FRET; conditions: TR-FRET, PGC1a coactivator; read-out: Binding Assay, IC50 ERRγ
Protocol: 1) ERRγ Binding Assay (Inverse Agonist Assay)
(§2) The arylethene derivative of the present invention was sequentially added to a 384 well plate from a concentration of 10 μM to a final concentration of two-fold dilution. […] After all reagents were added, a reaction was carried out with gentle shaking at 20° C. for 1 hour, and after the reaction, a binding activity was measured by a TR-FRET method.

GST-bound ERR alpha LBD = GST-bound ERR alpha LBD (Homo sapiens (Human), UniProt P11474); conditions: TR-FRET, PGC1a coactivator; read-out: Binding Assay, IC50 ERRα
Protocol: as §2

[3] = target: GST-bound ER alpha ligand-binding domain (LBD) (Homo sapiens (Human), UniProt P03372); assay: biochemical; conditions: TR-FRET, beta-estradiol 4 nM as agonist; read-out: Binding Assay, IC50 ERα
Protocol: as §2

ERRγ = type: cell-based
Protocol: AD293 was cultured in a 24-well plate for 24 hours, using a DMEM High glucose culture medium (Hyclone, USA) to which 0.5% FBS was added at a concentration of 9×10^4/well. The culture medium was replaced with a DMEM High glucose culture medium to which 10% FBS was added, treatment was performed with a mixture of a TransIT-LT1 transfection reagent (Mirus, USA) and pCMX-Gal4-ERRγ, pFR-luciferase reporter plasmid, pCMV-β-gal, and culturing was performed for 24 hours. Thereafter, a luciferase activity assay and a β-gal assay were performed, respectively, with a lysate obtained after treatment with the arylethene derivative of the present invention for 24 hours. All results were derived from three or more independent repetitive experiments.

hERG channel = hERG channel (Homo sapiens (Human), UniProt Q12809); assay: biochemical
CYP1A2 = CYP1A2 (Homo sapiens (Human), UniProt P05177); assay: Cytochrome P450 activity inhibition, CYP1A2; type: in vitro ADME; conditions: 10 μM, human liver microsomes, Phenacetin substrate
Excerpt: (§1) 1) Cytochrome P450 (CYP450) Activity Inhibition Evaluation

CYP2C19 = CYP2C19 (Homo sapiens (Human), UniProt P33261); assay: Cytochrome P450 activity inhibition, CYP2C19; type: in vitro ADME; conditions: 10 μM, human liver microsomes, S-mephenytoin substrate
Excerpt: as §1

in vitro = in vitro ADME; set-up: Papp at 5 h: dose or concentration left out as unconfirmed; conditions: PAMPA, PBS pH 7.4, 25° C., read-out: Permeability Pampa
[4] = 1 μM, 30 minutes, 37° C., NADPH
[5] = 1 μM, 30 minutes, 37° C., NADPH; remark: listed apart in the source
Protocol: 2) Microsomal Stability Evaluation
(§3) Four liver microsomes (Human, Dog, Rat, Mouse 0.5 mg/ml) with a 0.1 M phosphate buffer solution (pH 7.4), and the arylethene derivative of the present invention were added to a concentration of 1 μM, culturing was performed at 37° C. for 5 minutes in advance, a NADPH regeneration system solution was added thereto, and culturing was performed at 37° C. for 30 minutes. Thereafter, in order to complete the reaction, an acetonitrile solution containing an internal standard material (chlorpropamide) was added thereto, centrifugation (14,000 rpm, 4° C.) was performed for 5 minutes, and a supernatant was injected into a LC-MS/MS system to analyze the substrate drug, thereby evaluating metabolism stability to the arylethene derivative of the present invention.

ERRβ = ERRβ (Homo sapiens, UniProt O95718); conditions: TR-FRET, PGC1a coactivator; read-out: Binding Assay, IC50 ERRβ
Protocol: as §2

CYP2C9 = CYP2C9 (Homo sapiens (Human), UniProt P11712); assay: Cytochrome P450 activity inhibition, CYP2C9; type: in vitro ADME; conditions: 10 μM, human liver microsomes, Diclofenac substrate
Excerpt: as §1

CYP2D6 = CYP2D6 (Homo sapiens (Human), UniProt P10635); assay: Cytochrome P450 activity inhibition, CYP2D6; type: in vitro ADME; conditions: 10 μM, human liver microsomes, Dextromethorphan substrate
Excerpt: as §1

CYP3A4 = CYP3A4 (Homo sapiens (Human), UniProt P08684); assay: Cytochrome P450 activity inhibition, CYP3A4; type: in vitro ADME; conditions: 10 μM, human liver microsomes, Midazolam substrate
Excerpt: as §1

in vivo = type: in vivo; conditions: rat
[6] = 1 μM, 30 minutes, 37° C., NADPH; remark: listed apart in the source
Protocol: 2) Microsomal Stability Evaluation
as §3

[7] = 1 μM, 30 minutes, 37° C., NADPH; remark: listed apart in the source
CAL62 cells = assay: Clonogenic assay with 131I; type: cell-based; conditions: CAL-62, combination with 131I
Protocol: The cells were plated in a 6-well plate, and allowed to stand for 24 hours. […] The cells were washed with cold bHBSS, and allowed to stand in a normalized culture medium for a time corresponding to six doublings. Finally, the cells were fixed in a 4% paraformaldehyde (PFA) solution and stained with 0.05% crystal violet.

CAL-62/effluc tumor = conditions: background statement; cited from earlier work

Sequence of GST-bound ER alpha ligand-binding domain (LBD) (P03372 whole entry, looked up, the tested form may be a part): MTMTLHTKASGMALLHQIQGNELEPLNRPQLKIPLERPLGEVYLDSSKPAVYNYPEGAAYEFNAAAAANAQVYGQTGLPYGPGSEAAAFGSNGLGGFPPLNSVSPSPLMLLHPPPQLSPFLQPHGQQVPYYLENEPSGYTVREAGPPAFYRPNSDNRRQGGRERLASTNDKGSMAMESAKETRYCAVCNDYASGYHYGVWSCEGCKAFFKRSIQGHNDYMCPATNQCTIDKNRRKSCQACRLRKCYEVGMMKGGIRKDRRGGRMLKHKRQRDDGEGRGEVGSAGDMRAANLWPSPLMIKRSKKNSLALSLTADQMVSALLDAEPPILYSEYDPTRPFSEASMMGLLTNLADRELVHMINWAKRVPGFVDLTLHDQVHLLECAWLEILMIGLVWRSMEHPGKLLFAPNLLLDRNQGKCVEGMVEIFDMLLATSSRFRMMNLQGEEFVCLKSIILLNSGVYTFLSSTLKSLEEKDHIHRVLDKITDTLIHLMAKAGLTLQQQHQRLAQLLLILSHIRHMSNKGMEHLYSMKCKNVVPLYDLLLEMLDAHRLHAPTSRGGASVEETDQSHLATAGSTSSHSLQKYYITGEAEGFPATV
Sequence of GST-bound ERR alpha LBD (P11474 193-421): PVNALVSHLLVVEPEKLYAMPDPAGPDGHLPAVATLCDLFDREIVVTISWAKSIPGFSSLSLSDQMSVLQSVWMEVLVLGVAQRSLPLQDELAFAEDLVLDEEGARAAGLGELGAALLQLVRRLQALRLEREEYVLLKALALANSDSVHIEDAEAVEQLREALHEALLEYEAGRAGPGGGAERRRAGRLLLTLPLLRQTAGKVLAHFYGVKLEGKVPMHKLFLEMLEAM
Sequence of CYP3A4 (P08684 whole entry): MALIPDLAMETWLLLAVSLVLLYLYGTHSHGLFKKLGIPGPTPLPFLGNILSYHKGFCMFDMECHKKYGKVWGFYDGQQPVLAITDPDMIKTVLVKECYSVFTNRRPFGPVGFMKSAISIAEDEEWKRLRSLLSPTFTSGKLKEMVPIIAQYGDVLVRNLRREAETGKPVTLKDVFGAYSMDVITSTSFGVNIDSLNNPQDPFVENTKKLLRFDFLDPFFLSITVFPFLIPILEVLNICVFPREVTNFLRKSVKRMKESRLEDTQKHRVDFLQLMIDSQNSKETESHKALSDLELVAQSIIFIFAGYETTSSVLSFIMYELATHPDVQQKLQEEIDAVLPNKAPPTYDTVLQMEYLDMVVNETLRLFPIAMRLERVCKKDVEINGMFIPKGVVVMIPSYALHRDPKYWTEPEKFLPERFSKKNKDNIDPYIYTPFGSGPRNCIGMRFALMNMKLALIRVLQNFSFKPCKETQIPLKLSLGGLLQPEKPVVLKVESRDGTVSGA
Sequence of CYP1A2 (P05177 whole entry): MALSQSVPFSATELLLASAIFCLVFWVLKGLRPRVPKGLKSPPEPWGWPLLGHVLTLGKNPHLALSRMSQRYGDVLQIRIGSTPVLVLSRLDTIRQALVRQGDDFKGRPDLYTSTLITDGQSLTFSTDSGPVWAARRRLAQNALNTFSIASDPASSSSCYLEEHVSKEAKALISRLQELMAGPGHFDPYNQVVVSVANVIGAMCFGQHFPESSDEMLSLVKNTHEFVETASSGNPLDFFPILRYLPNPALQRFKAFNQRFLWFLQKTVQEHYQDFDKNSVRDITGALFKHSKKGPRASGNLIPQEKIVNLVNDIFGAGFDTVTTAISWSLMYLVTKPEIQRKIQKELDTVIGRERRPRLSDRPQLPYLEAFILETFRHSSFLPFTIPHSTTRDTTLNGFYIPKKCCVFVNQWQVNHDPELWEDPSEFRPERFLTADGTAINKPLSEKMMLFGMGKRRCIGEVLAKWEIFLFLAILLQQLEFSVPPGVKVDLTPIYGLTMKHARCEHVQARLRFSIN
Sequence of CYP2C19 (P33261 whole entry): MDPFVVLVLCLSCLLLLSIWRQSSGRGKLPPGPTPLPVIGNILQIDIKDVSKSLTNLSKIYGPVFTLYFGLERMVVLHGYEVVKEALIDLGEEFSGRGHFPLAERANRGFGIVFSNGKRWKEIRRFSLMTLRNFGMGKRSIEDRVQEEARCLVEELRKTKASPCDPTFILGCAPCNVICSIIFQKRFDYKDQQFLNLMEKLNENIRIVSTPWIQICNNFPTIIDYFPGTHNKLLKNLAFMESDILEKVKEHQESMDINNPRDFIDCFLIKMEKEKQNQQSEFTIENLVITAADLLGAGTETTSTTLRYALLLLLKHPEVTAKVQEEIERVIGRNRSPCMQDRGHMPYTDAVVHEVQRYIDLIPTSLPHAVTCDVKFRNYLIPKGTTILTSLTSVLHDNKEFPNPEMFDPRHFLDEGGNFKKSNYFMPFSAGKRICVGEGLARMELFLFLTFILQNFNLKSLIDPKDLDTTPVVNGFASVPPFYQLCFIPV
Sequence of GST-bound ERR gamma ligand-binding domain (LBD) (P62508 233-457): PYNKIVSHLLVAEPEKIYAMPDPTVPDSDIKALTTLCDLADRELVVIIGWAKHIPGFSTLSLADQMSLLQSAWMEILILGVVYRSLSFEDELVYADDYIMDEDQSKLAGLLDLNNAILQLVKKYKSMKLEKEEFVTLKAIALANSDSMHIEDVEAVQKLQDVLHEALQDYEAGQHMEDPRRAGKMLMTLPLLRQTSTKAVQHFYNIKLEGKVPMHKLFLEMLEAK
Sequence of CYP2D6 (P10635 whole entry): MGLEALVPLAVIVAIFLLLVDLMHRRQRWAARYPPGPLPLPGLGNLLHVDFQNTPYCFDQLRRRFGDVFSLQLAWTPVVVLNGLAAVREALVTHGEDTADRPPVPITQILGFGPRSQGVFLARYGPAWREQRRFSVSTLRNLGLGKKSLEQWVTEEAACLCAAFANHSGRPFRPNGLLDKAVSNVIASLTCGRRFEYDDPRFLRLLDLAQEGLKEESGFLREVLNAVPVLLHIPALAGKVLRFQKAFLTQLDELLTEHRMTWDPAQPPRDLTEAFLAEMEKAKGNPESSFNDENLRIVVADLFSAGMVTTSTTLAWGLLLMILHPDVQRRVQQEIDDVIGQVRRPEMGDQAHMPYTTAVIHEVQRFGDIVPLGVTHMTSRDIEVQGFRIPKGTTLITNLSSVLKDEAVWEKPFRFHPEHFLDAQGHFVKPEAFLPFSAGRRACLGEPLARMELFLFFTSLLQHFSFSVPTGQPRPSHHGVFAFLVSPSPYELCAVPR
Sequence of ERRβ (O95718 whole entry, looked up): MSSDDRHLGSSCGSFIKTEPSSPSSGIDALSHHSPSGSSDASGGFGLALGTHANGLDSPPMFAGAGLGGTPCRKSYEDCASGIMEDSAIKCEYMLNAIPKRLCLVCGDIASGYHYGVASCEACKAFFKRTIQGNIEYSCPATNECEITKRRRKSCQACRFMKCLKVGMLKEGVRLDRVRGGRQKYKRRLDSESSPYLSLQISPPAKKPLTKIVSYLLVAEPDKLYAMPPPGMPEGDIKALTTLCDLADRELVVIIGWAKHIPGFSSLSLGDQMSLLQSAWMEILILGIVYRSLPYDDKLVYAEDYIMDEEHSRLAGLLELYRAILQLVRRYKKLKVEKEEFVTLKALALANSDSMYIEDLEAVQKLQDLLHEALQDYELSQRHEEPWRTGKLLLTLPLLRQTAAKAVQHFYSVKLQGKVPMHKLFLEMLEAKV
Sequence of CYP2C9 (P11712 whole entry): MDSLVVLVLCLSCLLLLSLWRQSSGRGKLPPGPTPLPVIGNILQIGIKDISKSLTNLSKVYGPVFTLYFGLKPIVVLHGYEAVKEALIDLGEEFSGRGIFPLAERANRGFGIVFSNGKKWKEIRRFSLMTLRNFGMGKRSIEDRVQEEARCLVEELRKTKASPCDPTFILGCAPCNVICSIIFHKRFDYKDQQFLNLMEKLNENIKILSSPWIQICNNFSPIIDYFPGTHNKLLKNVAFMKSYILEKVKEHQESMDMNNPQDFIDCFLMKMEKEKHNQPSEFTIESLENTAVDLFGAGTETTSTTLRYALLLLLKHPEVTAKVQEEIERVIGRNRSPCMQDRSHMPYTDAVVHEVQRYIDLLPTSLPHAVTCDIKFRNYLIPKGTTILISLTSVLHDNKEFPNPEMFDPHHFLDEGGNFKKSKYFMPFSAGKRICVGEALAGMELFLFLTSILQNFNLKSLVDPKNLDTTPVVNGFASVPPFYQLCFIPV

N#CC(=C(/N)Sc1ccccc1N)/C(C#N)=C(\N)Sc1ccccc1N [Compound U0126]
inhibition of radioactive iodine uptake increase by compound 18a ([1]; MEK inhibitor pre-incubation 30 minutes): completely inhibited
inhibition of relative increase of phosphorylated ERK1 and ERK2 by compound 18a (pERK1/2): completely inhibited

OCCC/C(=C(\c1ccc(O)cc1)c1ccc(OCCN2CCCCC2)cc1)c1ccccc1 [Compound 6d]
IC50 [2]: 0.093 µM
IC50 (GST-bound ERR alpha LBD): > 10 µM
IC50 [3]: 0.262 µM
Functional Assay, Cpds/Ref 5182 (ERRγ): 1.69
Functional Assay at 10 μM (% of control), Cpds (ERRγ; 10 μM, 24 hours, AD293): 5.2 % of control
IC50 (hERG channel): > 30 µM

CN1CCN(c2ccc(/C(=C(/CCCO)c3ccccc3)c3ccc(N)cc3)cc2)CC1 [Compound 26a, (Z)-5-(4-aminophenyl)-5-(4-(4-methylpiperazin-1-yl)phenyl)-4-phenylpent-4-en-1-ol]
Functional Assay at 10 μM (% of control), Cpds (ERRγ; 10 μM, 24 hours, AD293): 2.66 % of control
Functional Assay, Cpds/Ref 5182 (ERRγ; activity relative to reference compound GSK5182, 10 μM): 0.84
CYP inhibition (% of control) 1A2 (CYP1A2): >100 % of control
CYP inhibition (% of control) 2C19 (CYP2C19): 89 % of control
Papp at 5 h (in vitro): 1.58 ×10⁻⁶ cm/s
MS(Microsomal Stability) (%) human [4]: 72.3%
MS(Microsomal Stability) (%) rat [5]: 46.7%
IC50 (hERG channel): > 30 µM

CN1CCC[C@@H]1COc1ccc(/C(=C(/CCCO)c2ccccc2)c2ccc(O)cc2)cc1 [Compound 6i]
Functional Assay at 10 μM (% of control), Cpds (ERRγ): 5 % of control
Functional Assay, Cpds/Ref 5182 (ERRγ): 1.62
IC50 (hERG channel): > 30 µM

CC(C)N1CCC(c2ccc(/C(=C(/CCCO)c3ccccc3)c3cccc(O)c3)cc2)CC1 [Compound 22m]
IC50 (GST-bound ERR alpha LBD): > 10 µM
IC50 (ERRβ): 7.82 µM
IC50 [3]: > 10 µM
CYP inhibition (% of control) 1A2 (CYP1A2): 97 % of control
CYP inhibition (% of control) 2C9 (CYP2C9): 80.3 % of control
CYP inhibition (% of control) 2C19 (CYP2C19): >100 % of control
CYP inhibition (% of control) 2D6 (CYP2D6): 70.7 % of control
CYP inhibition (% of control) 3A4 (CYP3A4): 58.1 % of control
AUCINF (in vivo; IV, 1 mg/kg): 0.00 μMh
AUCall (in vivo; IV, 1 mg/kg): 0.34 μMh
Vss (in vivo; IV, 1 mg/kg): 19.9 L/kg
t1/2 (in vivo; IV, 1 mg/kg): 2.4 h
AUCINF (in vivo; PO, 10 mg/kg): 0.00 μMh
AUCall (in vivo; PO, 10 mg/kg): 0.73 μMh
BA (in vivo; PO, 10 mg/kg): 24.3%
Tmax (in vivo; PO, 10 mg/kg): 2.4 h
t1/2 (in vivo; PO, 10 mg/kg): 4.3 h
Cmax (in vivo; PO, 10 mg/kg, read-out: Cmax): 130 nM
MS(Microsomal Stability) (%) human [4]: 55.3%
MS(Microsomal Stability) (%) dog [6]: 55.0%
MS(Microsomal Stability) (%) rat [5]: 53.5%
MS(Microsomal Stability) (%) mouse [7]: 24.2%

CN(C)CCOc1ccc(/C(=C(/CCCO)c2ccccc2)c2ccc(O)cc2)cc1 [GSK5182, (Z)-4-(1-(4-(2-(dimethylamino)ethoxy)phenyl)-5-hydroxy-2-phenylpent-1-en-1-yl)phenol, reference compound]
CYP inhibition (% of control) 3A4 (CYP3A4): 83 % of control
Papp at 5 h (in vitro): 0.11 to 0.82 ×10⁻⁶ cm/s
half-life (in vivo; in vivo, IV, 1 mg/kg): 2.3 h
Vd (in vivo; in vivo, IV, 1 mg/kg, read-out: Vss): 9.1 L/kg
CL/F (in vivo; in vivo, PO, 10 mg/kg, read-out: Cl(observed)/F): 134 mL/min/kg
Tmax (in vivo; in vivo, PO, 10 mg/kg, read-out: Tmax): 1.9 h
AUCINF (in vivo; IV, 1 mg/kg): 0.94 μMh
AUCall (in vivo; IV, 1 mg/kg): 0.89 μMh
Cl(observed)/F (in vivo; IV, 1 mg/kg): 44 mL/min/kg
AUCINF (in vivo; PO, 10 mg/kg): 0.78 μMh
AUCall (in vivo; PO, 10 mg/kg): 0.68 μMh
BA (in vivo; PO, 10 mg/kg): 8.4%
Cmax (in vivo; in vivo, po, 10 mg/kg): 130 nM
colony-formability, combining 131I and GSK5182 (CAL62 cells): about 58.5±7.4%
MS(Microsomal Stability) (%) human [4]: 42.8-45.1%
MS(Microsomal Stability) (%) rat [5]: 26.0-29.1%
radioiodine uptake in the tumor, ATC mouse tumor model (CAL-62/effluc tumor): not increased

[K+].[O-][Cl+3]([O-])([O-])[O-] [KClO4]
block of radioactive iodine uptake increased in compound 18a-treated cells ([1]; co-incubated with compound 18a-treated CAL62 cells, 300 μM KClO4): completely blocks
